What all share (assay): NCI anticancer screen, dose series, 48 h
Test [1] has as its system U-251.
In test [2] the test system is HOP-92.
The subject of test [3] is HT-29.
Test [4] has as its system SF-268.
Test [5] concerns 786-0.
The test system of test [6] is UO-31.
Test [7] concerns LOX IMVI.
Test [8] has as its system PC-3.
The test system of test [9] is OVCAR-5.
Test [10] concerns HCT-116.
Test [11] concerns NCI-H460.
For test [12], the system named is SN12C.
Test [13] has as its system SR.
In test [14] the test system is RXF 393.
Test [15] has as its system BT-549.
For test [16], the system named is SK-OV-3.
Test [17] deals with TK-10.
The test system of test [18] is HCC 2998.

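Values below derive from 48-hour exposures of cells grown in 96-well plates, with endpoints linearly interpolated between the two concentrations bracketing the appropriate inhibition level. GI50 = concentration required for 50% inhibition of growth.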 Calls of active or inactive are those of the source. No stated cut-off is given here; in the data, active = GI50 up to about 1.1 µM and inactive = higher. A value given as a limit tells only on which side of the number the result lay.

The results in this text go back to ChEMBL document CHEMBL1201862, “PubChem BioAssay data set” (2004).

`N#Cc1c(-c2ccc(Cl)cc2)c2c([nH]c1=O)-c1ccccc1SC2`: the GI50 in test [1] was 25.6 µM (inactive); in test [2] it was 17.7 µM (inactive); in [3] it was 59.7 µM (inactive); in test [4] it was 41.9 µM (inactive); in test [5], 39.8 µM (inactive); in test [6] it was 56.9 µM (inactive). Moreover, the GI50 in test [7] is 22 µM (inactive); in test [8], 42.8 µM (inactive); in test [9], > 100 µM (inactive); in test [10], 35.4 µM (inactive); in [11] it was 46.3 µM (inactive); in [12], 54.3 µM (inactive). In addition, the GI50 in test [13] is 29.2 µM (inactive); in test [14], 25.2 µM (inactive); in [15], > 100 µM (inactive); in [16] it was 32.7 µM (inactive); in [17] it was 16.2 µM (inactive).
Take `CC(=O)NC(CC(C)C)C(=O)NC(CC(C)C)C(=O)NC(C=O)CCCNC(=N)N` (configuration not stated): the GI50 in [1], in [2], in [3], in test [4], in test [18] and in [5] was > 100 µM (inactive) throughout. The GI50 in test [6], in [7], in test [8], in test [9], in test [10] and in [11] was > 100 µM (inactive) throughout. For the same compound, the GI50 in [12], in test [13], in test [15], in [16] and in [17] was > 100 µM (inactive) throughout.
`Oc1ccc([C@H]2c3c(O)cc(O)cc3C3c4c(cc(O)cc4[C@@H]2[C@H]2c4cc(O)cc5c4C(c4cc(O)cc(O)c4[C@@H]2c2ccc(O)cc2)[C@@H](c2ccc(O)cc2)O5)O[C@@H]3c2ccc(O)cc2)cc1` (some centres not stated): the GI50 is 3.55 µM (inactive) in test [1]; 0.861 µM (active) in test [3]; 1.61 µM (inactive) in test [4]; 0.452 µM (active) in test [18]; 4.94 µM (inactive) in test [5]; 2.41 µM (inactive) in test [7]. For the same compound, the GI50 in [8] is 0.391 µM (active); in [9] it was 0.678 µM (active); in test [10] it was 0.861 µM (active); in test [11], 3.89 µM (inactive); in [12], > 100 µM (inactive); in test [13], 16.9 µM (inactive). Further, the figures for the GI50 in [14], in test [15] and in [17] were 0.0486 µM (active), > 100 µM (inactive) and > 100 µM (inactive), respectively.
Take `CC(C)C1N(C)c2ccc(Cl)cc2[C@H]2c3ccccc3CCN12` (some centres not stated): the GI50 in [1] is 61.5 µM (inactive); in test [2] it was 24.9 µM (inactive); in [3] it was 22.1 µM (inactive); in test [4], > 100 µM (inactive); in test [5] it was > 100 µM (inactive); in [6], 98.4 µM (inactive). The GI50 in test [7] was 31.6 µM (inactive); in [8], 62.4 µM (inactive); in test [9] it was 38.3 µM (inactive); in test [10], 40.2 µM (inactive); in test [11] it was 94.8 µM (inactive); in [12], 45.2 µM (inactive). The GI50 is 29.9 µM (inactive) in test [13]; 47.5 µM (inactive) in [14]; > 100 µM (inactive) in test [15]; > 100 µM (inactive) in test [16]; 89.9 µM (inactive) in [17].
`COC(=O)C1=C(C(=O)OC)C(C(=O)c2ccc(Br)cc2)N2N=C(c3ccc(Cl)cc3)C=CC12` (configuration not stated): the GI50 in [1] is > 100 µM (inactive); in test [2], 72.1 µM (inactive); in test [4], 69.7 µM (inactive); in [18], > 100 µM (inactive); in test [5], > 100 µM (inactive); in test [6], > 100 µM (inactive). Further, the GI50 was > 100 µM (inactive) in test [7]; 80.4 µM (inactive) in [8]; > 100 µM (inactive) in test [9]; > 100 µM (inactive) in test [10]; > 100 µM (inactive) in [11]; > 100 µM (inactive) in test [12]. Besides, the GI50 in test [13] is 40.6 µM (inactive); in test [15], 34.8 µM (inactive); in test [16], > 100 µM (inactive); in [17] it was > 100 µM (inactive).
Regarding `O=C1Nc2ccccc2C1Cc1ccc([N+](=O)[O-])cc1` (configuration not stated), the GI50 in [1], in test [3], in [4], in test [18], in [5] and in test [6] was > 100 µM (inactive) in each case. Also, the GI50 in [7] is > 100 µM (inactive); in test [8], 74 µM (inactive); in test [9] it was > 100 µM (inactive); in test [10] it was > 100 µM (inactive); in [11], > 100 µM (inactive); in test [12], > 100 µM (inactive). The GI50 in test [13] was 19.4 µM (inactive); in test [14], > 100 µM (inactive); in test [15] it was > 100 µM (inactive); in test [16] it was > 100 µM (inactive); in [17] it was > 100 µM (inactive).
With `Brc1cccc(Nc2nc(-c3cccs3)nc3ccc(Br)cc23)c1`, the GI50 was 31.5 µM (inactive) in test [1]; 19.6 µM (inactive) in test [2]; 17.1 µM (inactive) in test [3]; 26.3 µM (inactive) in test [4]; 20.2 µM (inactive) in test [18]; 28.2 µM (inactive) in test [5]. Also, the GI50 was 47 µM (inactive) in test [6]; 31.3 µM (inactive) in [7]; 31.9 µM (inactive) in test [8]; 25.2 µM (inactive) in test [9]; 30.5 µM (inactive) in test [10]; 21.7 µM (inactive) in test [11]. For the same compound, the GI50 in test [12] is 22.7 µM (inactive); in test [13] it was 1.48 µM (inactive); in [15] it was 80.9 µM (inactive); in test [16] it was > 100 µM (inactive); in test [17], 24.7 µM (inactive).
Consider `CC(C)(C)C1CCC2c3c([nH]c4ccccc34)C3C(=O)N(c4cc(Br)cc(Br)c4)C(=O)C3C2C1` (configuration not stated), for which the GI50 in [1] was 13.4 µM (inactive); in test [2], 2.63 µM (inactive); in test [3], 9.89 µM (inactive); in test [18], 5.05 µM (inactive); in test [5], 6.95 µM (inactive); in [6], 6.97 µM (inactive). For the same compound, the GI50 was 27.2 µM (inactive) in test [7]; 9.95 µM (inactive) in test [8]; 31.6 µM (inactive) in [9]; 4.34 µM (inactive) in test [10]; 6.43 µM (inactive) in test [11]; 6.82 µM (inactive) in [12]. Besides, the GI50 was 7.89 µM (inactive) in [13], 33.9 µM (inactive) in test [15], 61.1 µM (inactive) in [16] and 19.9 µM (inactive) in [17].
For `CCOC(=O)c1nc2cc(C(F)(F)F)ccc2nc1Oc1ccc(OC)cc1`, the GI50 in test [1], in test [2], in [4], in [18], in [5] and in test [6] was > 100 µM (inactive) each time. The GI50 in [7] was > 100 µM (inactive); in [8], > 100 µM (inactive); in test [9] it was > 100 µM (inactive); in [10], > 100 µM (inactive); in test [11], 70.8 µM (inactive); in test [12] it was > 100 µM (inactive). Besides, the GI50 in test [13] is 74.6 µM (inactive); in test [14], 50.9 µM (inactive); in test [15], > 100 µM (inactive); in [17], > 100 µM (inactive).
Turning to `COC(=O)c1cc(C)ccc1/C=C1\Cc2cc(C)c(C)cc2C1=O`, the GI50 in test [2] is 36.2 µM (inactive); in [3], > 100 µM (inactive); in [4], 41.1 µM (inactive); in test [18], > 100 µM (inactive); in test [5], 55.8 µM (inactive); in test [6] it was > 100 µM (inactive). The GI50 in test [7], in test [8], in test [9], in test [10], in test [11] and in test [12] was > 100 µM (inactive) in each case. Also, the GI50 in test [13] was > 100 µM (inactive); in [14], 50.5 µM (inactive); in test [15], > 100 µM (inactive); in [17], > 100 µM (inactive).
On to `O=c1c2c(nc3[nH]ccn13)CCC2`, for which the GI50 in [1], in test [2], in [3], in test [4], in test [5] and in test [6] was > 10 µM (inactive) each time. Also, the GI50 in test [7], in test [8], in test [9], in test [10], in test [11] and in test [12] was > 10 µM (inactive) in each case. Further, the GI50 in test [13], in test [14], in test [15], in test [16] and in [17] was > 10 µM (inactive) each time.
As to `Cc1cccc2c1Oc1ccccc1C2NC(=O)c1ccc([N+](=O)[O-])cc1` (configuration not stated), the GI50 in test [1] was 57.8 µM (inactive); in [2], > 100 µM (inactive); in test [3] it was > 100 µM (inactive); in test [4], 95.3 µM (inactive); in test [5] it was > 100 µM (inactive); in test [6], > 100 µM (inactive). The GI50 is > 100 µM (inactive) in test [7]; > 100 µM (inactive) in [8]; > 100 µM (inactive) in [9]; > 100 µM (inactive) in test [10]; > 100 µM (inactive) in [11]; 29.3 µM (inactive) in [12]. The GI50 in test [13] is > 100 µM (inactive); in [14] it was 23.7 µM (inactive); in [15], 56 µM (inactive); in test [17], > 100 µM (inactive).
